These are literature values, as cited in patent publication US20220265671A1, “METHOD FOR TREATING STROKE BY USING TRICYCLIC DERIVATIVE” (Jeil Pharmaceutical Co., Ltd., priority 2019, published 2022).

For this series, the system named is tMCAO animal model. The following applies: Molecular Neurobiology 55(9859), January 2018; cited from earlier work.

For the compound `CCOc1cc(CN2CCOCC2)cc2[nH]c(=O)c3c(c12)NCCC3` [10-ethoxy-8-(morpholinomethyl)-1,2,3,4-tetrahydrobenzo[h][1,6]naphthyridin-5(6H)-one], the “reducing cerebral infarction volume” value is listed as “effective in reducing cerebral infarction volume”.
